Results published in patent US6339042B1, “Herbicidal N-cyclohexadienyl heteroaryloxyacetamides” (American Cyanamid Co., priority 1999, dated 2002).

What was measured:
Details in all cases: three weeks after treatment
Alopecurus myosuroides [1] = assay: Post-emergence herbicidal evaluation, ALOMY
Amaranthus tuberculatus [2] = assay: Post-emergence herbicidal evaluation, AMATA; assay type: in vivo
Zea mays [3] = assay: Pre-emergence herbicidal evaluation, ZEAMX; assay type: in vivo
Description: (§1) The treated pots are then placed on greenhouse benches, watered and cared for in accordance with conventional greenhouse procedures.

Galium aparine [4] = assay: Pre-emergence herbicidal evaluation, GALAP; assay type: in vivo
Description: as §1

Setaria viridis [5] = assay: Pre-emergence herbicidal evaluation, SETVI; assay type: in vivo
Description: as §1

Zea mays [6] = assay: Post-emergence herbicidal evaluation, ZEAMX
Description: (§2) Each pot is examined three weeks after treatment and phytotoxicity is assessed according to the rating system set forth below.
(§3) These acetone solutions are diluted with water and the resulting formulations applied at dosage levels equivalent of about 0.4 to 0.1 kg per hectare of test compound per pot. After spraying the plants are placed on greenhouse benches and are cared for in the usual manner, commensurate with conventional greenhouse practices.

Setaria viridis [7] = assay: Post-emergence herbicidal evaluation, SETVI
Description: (§4) The compounds of the invention are tested for pre- and post-emergence herbicidal activity.
as §2, §3

Hordeum vulgare [8] = assay: Pre-emergence herbicidal evaluation, HORVW; assay type: in vivo
Description: as §1

Glycine max [9] = assay: Post-emergence herbicidal evaluation, GLXMA
Oryza sativum [10] = assay: Post-emergence herbicidal evaluation, ORYSA
Apera spica venti [11] = assay: Pre-emergence herbicidal evaluation, APESV; assay type: in vivo
Description: as §1

Lolium perenne [12] = assay: Post-emergence herbicidal evaluation, LOLPE
Oryza sativum [13] = assay: Pre-emergence herbicidal evaluation, ORYSA; assay type: in vivo
Description: as §1

Triticum aestivum [14] = assay: Pre-emergence herbicidal evaluation, TRZAW; assay type: in vivo
Description: as §1

Echinochloa crus-galli [15] = assay: Post-emergence herbicidal evaluation, ECHCG
Description: as §4, §2, §3

Galium aparine [16] = assay: Post-emergence herbicidal evaluation, GALAP
Echinochloa crus-galli [17] = assay: Pre-emergence herbicidal evaluation, ECHCG; assay type: in vivo
Description: as §1

Lolium perenne [18] = assay: Pre-emergence herbicidal evaluation, LOLPE; assay type: in vivo
Description: as §1

Alopecurus myosuroides [19] = assay: Pre-emergence herbicidal evaluation, ALOMY; assay type: in vivo
Description: as §1

Hordeum vulgare [20] = assay: Post-emergence herbicidal evaluation, HORVW
Apera spica venti [21] = assay: Post-emergence herbicidal evaluation, APESV
Description: as §4, §2, §3

Triticum aestivum [22] = assay: Post-emergence herbicidal evaluation, TRZAW
Amaranthus tuberculatus [23] = assay: Pre-emergence herbicidal evaluation, AMATA; assay type: in vivo
Description: as §1

Glycine max [24] = assay: Pre-emergence herbicidal evaluation, GLXMA; assay type: in vivo
Description: as §1

CC1=CC(N(C(=O)COc2nc3ccccc3o2)C(C)C)=CC(C)(C)C1 [Example 17]
1 (1 - Trace effect): phytotoxicity rating ZEAMX (Zea mays [3]; 0.400 kg/ha) | phytotoxicity rating ZEAMX (Zea mays [6]; 0.400 kg/ha) | phytotoxicity rating HORVW (Hordeum vulgare [8]; 0.100 kg/ha) | phytotoxicity rating TRZAW (Triticum aestivum [14]; 0.100 kg/ha) | phytotoxicity rating GALAP (Galium aparine [16]; 0.100 kg/ha) | phytotoxicity rating TRZAW (Triticum aestivum [22]; 0.200 kg/ha) | phytotoxicity rating GLXMA (Glycine max [24]; 0.800 kg/ha)
0 (0 - No effect): phytotoxicity rating ZEAMX (Zea mays [3]; 0.100 kg/ha) | phytotoxicity rating ZEAMX (Zea mays [3]; 0.200 kg/ha) | phytotoxicity rating GALAP (Galium aparine [4]; 0.100 kg/ha) | phytotoxicity rating GALAP (Galium aparine [4]; 0.200 kg/ha) | phytotoxicity rating GALAP (Galium aparine [4]; 0.400 kg/ha) | phytotoxicity rating GALAP (Galium aparine [4]; 0.800 kg/ha) | phytotoxicity rating ZEAMX (Zea mays [6]; 0.100 kg/ha) | phytotoxicity rating ZEAMX (Zea mays [6]; 0.200 kg/ha) | phytotoxicity rating ORYSA (Oryza sativum [10]; 0.100 kg/ha) | phytotoxicity rating HORVW (Hordeum vulgare [20]; 0.100 kg/ha) | phytotoxicity rating HORVW (Hordeum vulgare [20]; 0.200 kg/ha) | phytotoxicity rating HORVW (Hordeum vulgare [20]; 0.400 kg/ha) | phytotoxicity rating TRZAW (Triticum aestivum [22]; 0.100 kg/ha) | phytotoxicity rating GLXMA (Glycine max [24]; 0.100 kg/ha) | phytotoxicity rating GLXMA (Glycine max [24]; 0.200 kg/ha) | phytotoxicity rating GLXMA (Glycine max [24]; 0.400 kg/ha)
8 (8 - Approaching complete kill): phytotoxicity rating ALOMY (Alopecurus myosuroides [1]; 0.400 kg/ha) | phytotoxicity rating SETVI (Setaria viridis [5]; 0.400 kg/ha) | phytotoxicity rating SETVI (Setaria viridis [5]; 0.800 kg/ha) | phytotoxicity rating APESV (Apera spica venti [11]; 0.200 kg/ha) | phytotoxicity rating LOLPE (Lolium perenne [12]; 0.400 kg/ha) | phytotoxicity rating APESV (Apera spica venti [21]; 0.200 kg/ha) | phytotoxicity rating APESV (Apera spica venti [21]; 0.400 kg/ha)
3 (3 - Moderate effect): phytotoxicity rating ALOMY (Alopecurus myosuroides [1]; 0.100 kg/ha) | phytotoxicity rating AMATA (Amaranthus tuberculatus [2]; 0.100 kg/ha) | phytotoxicity rating ZEAMX (Zea mays [3]; 0.800 kg/ha) | phytotoxicity rating SETVI (Setaria viridis [5]; 0.100 kg/ha) | phytotoxicity rating GLXMA (Glycine max [9]; 0.100 kg/ha) | phytotoxicity rating GLXMA (Glycine max [9]; 0.200 kg/ha) | phytotoxicity rating ORYSA (Oryza sativum [10]; 0.200 kg/ha) | phytotoxicity rating ORYSA (Oryza sativum [13]; 0.200 kg/ha) | phytotoxicity rating ECHCG (Echinochloa crus-galli [15]; 0.100 kg/ha) | phytotoxicity rating GALAP (Galium aparine [16]; 0.200 kg/ha) | phytotoxicity rating ALOMY (Alopecurus myosuroides [19]; 0.100 kg/ha)
6 (6 - Herbicidal effect): phytotoxicity rating ALOMY (Alopecurus myosuroides [1]; 0.200 kg/ha) | phytotoxicity rating SETVI (Setaria viridis [7]; 0.200 kg/ha) | phytotoxicity rating SETVI (Setaria viridis [7]; 0.400 kg/ha) | phytotoxicity rating GLXMA (Glycine max [9]; 0.400 kg/ha) | phytotoxicity rating ECHCG (Echinochloa crus-galli [15]; 0.400 kg/ha) | phytotoxicity rating ECHCG (Echinochloa crus-galli [17]; 0.200 kg/ha) | phytotoxicity rating ALOMY (Alopecurus myosuroides [19]; 0.200 kg/ha) | phytotoxicity rating ALOMY (Alopecurus myosuroides [19]; 0.400 kg/ha) | phytotoxicity rating APESV (Apera spica venti [21]; 0.100 kg/ha)
4 (4 - Injury): phytotoxicity rating AMATA (Amaranthus tuberculatus [2]; 0.200 kg/ha) | phytotoxicity rating HORVW (Hordeum vulgare [8]; 0.800 kg/ha) | phytotoxicity rating ORYSA (Oryza sativum [10]; 0.400 kg/ha) | phytotoxicity rating LOLPE (Lolium perenne [12]; 0.100 kg/ha) | phytotoxicity rating ORYSA (Oryza sativum [13]; 0.400 kg/ha) | phytotoxicity rating ORYSA (Oryza sativum [13]; 0.800 kg/ha) | phytotoxicity rating TRZAW (Triticum aestivum [14]; 0.800 kg/ha) | phytotoxicity rating ECHCG (Echinochloa crus-galli [15]; 0.200 kg/ha) | phytotoxicity rating GALAP (Galium aparine [16]; 0.400 kg/ha) | phytotoxicity rating ECHCG (Echinochloa crus-galli [17]; 0.100 kg/ha) | phytotoxicity rating AMATA (Amaranthus tuberculatus [23]; 0.100 kg/ha)
9 (9 - Complete kill): phytotoxicity rating APESV (Apera spica venti [11]; 0.400 kg/ha) | phytotoxicity rating APESV (Apera spica venti [11]; 0.800 kg/ha) | phytotoxicity rating ECHCG (Echinochloa crus-galli [17]; 0.800 kg/ha) | phytotoxicity rating LOLPE (Lolium perenne [18]; 0.200 kg/ha) | phytotoxicity rating LOLPE (Lolium perenne [18]; 0.400 kg/ha) | phytotoxicity rating LOLPE (Lolium perenne [18]; 0.800 kg/ha) | phytotoxicity rating ALOMY (Alopecurus myosuroides [19]; 0.800 kg/ha) | phytotoxicity rating AMATA (Amaranthus tuberculatus [23]; 0.800 kg/ha)
5 (5 - Definite injury): phytotoxicity rating AMATA (Amaranthus tuberculatus [2]; 0.400 kg/ha) | phytotoxicity rating SETVI (Setaria viridis [5]; 0.200 kg/ha) | phytotoxicity rating SETVI (Setaria viridis [7]; 0.100 kg/ha) | phytotoxicity rating LOLPE (Lolium perenne [18]; 0.100 kg/ha) | phytotoxicity rating AMATA (Amaranthus tuberculatus [23]; 0.200 kg/ha) | phytotoxicity rating AMATA (Amaranthus tuberculatus [23]; 0.400 kg/ha)
2 (2 - Slight effect): phytotoxicity rating HORVW (Hordeum vulgare [8]; 0.200 kg/ha) | phytotoxicity rating HORVW (Hordeum vulgare [8]; 0.400 kg/ha) | phytotoxicity rating ORYSA (Oryza sativum [13]; 0.100 kg/ha) | phytotoxicity rating TRZAW (Triticum aestivum [14]; 0.200 kg/ha) | phytotoxicity rating TRZAW (Triticum aestivum [14]; 0.400 kg/ha) | phytotoxicity rating TRZAW (Triticum aestivum [22]; 0.400 kg/ha)
7 (7 - Good herbicidal effect): phytotoxicity rating APESV (Apera spica venti [11]; 0.100 kg/ha) | phytotoxicity rating LOLPE (Lolium perenne [12]; 0.200 kg/ha) | phytotoxicity rating ECHCG (Echinochloa crus-galli [17]; 0.400 kg/ha)
